≈ marks a conversion by molar mass, not a printed value.
details: buffer; pH 7.4; 6.0 h; 150.0 µM

Row | solubility kinetic | Structure (SMILES)
1 | 1.88 µg/mL (≈ 5.05 µM) | CCc1cccc(C)c1Nc1c(-c2ccc(N(C)C)cc2)nc2ncccn12
2 | 2.74 µg/mL (≈ 6.35 µM) | CCOC(=O)c1[nH]c(C)c(CCC(=O)N2CCN(c3cc(Cl)ccc3C)CC2)c1C
3 | > 47 µg/mL | Nc1ncnc2c1c(-c1cnc3[nH]ccc3c1)nn2C1CCCC1
4 | < 1 µg/mL | COc1cccc(CNc2ccc(C(=O)Nc3nccs3)cc2)c1O
5 | 2.38 µg/mL (≈ 4.65 µM) | COc1ccc(C)cc1-n1nnnc1Sc1ncnc2scc(-c3ccc(Br)cc3)c12
6 | 3.13 µg/mL (≈ 6.76 µM) | Cc1ccccc1C(C(=O)NC1CCCCC1)N(C(=O)Cn1ccnc1C)c1cccc(F)c1 (stereo not given)
7 | 15.6 µg/mL (≈ 43.8 µM) | Cc1cc(-c2nnc3n2CCCCC3)c(C)n1-c1cccc2ccccc12
8 | > 60 µg/mL | COc1ccc(C2(C(=O)N3CCC(n4cc(-c5nc(C)no5)nn4)CC3)CC2)cc1
9 | < 1 µg/mL | COc1cc(NS(=O)(=O)c2ccc(C)cc2)c(C(=O)Nc2nc(-c3ccccc3)cs2)cc1OC
10 | > 62 µg/mL | Cc1cccc(C(=O)Nc2ccc(N3CCC(N4CCCCC4)CC3)c(C(=O)O)c2)c1
11 | > 59 µg/mL | CCN(CC)CCNC(=O)c1c(C)[nH]c(C=C2C(=O)Nc3ccc(F)cc32)c1C
12 | 5.42 µg/mL (≈ 12.7 µM) | C=Cc1ccc(Cn2c(C(=O)O)c(CNCc3ccccc3)c3ccc(OC)cc32)cc1
13 | > 53 µg/mL | CC(C)CC(=O)Nc1n[nH]c2c1CN(C(=O)C1CCN(C)CC1)C2(C)C
14 | 3.41 µg/mL (≈ 14.5 µM) | Cc1ccc2[nH]c(-c3ccccc3)cc(=O)c2c1
15 | > 64 µg/mL | Cc1ccc(S(=O)(=O)Nc2cnccc2C(=O)Nc2ccc(-c3nn[nH]n3)cc2)cc1
16 | < 1 µg/mL | O=C(NC1CCCc2c1[nH]c1c(Cl)cccc21)c1ccc2c(c1)OCO2 (stereo not given)
17 | < 1 µg/mL | COC(=O)c1sccc1NC(=O)c1sccc1C
18 | < 1 µg/mL | O=C(Nc1cc(C(F)(F)F)ccc1N1CCOCC1)c1n[nH]c(=O)c2ccccc12
19 | > 55 µg/mL | O=C(Cc1ccccc1)Nc1ccc(S(=O)(=O)Nc2nccs2)cc1
20 | 31.2 µg/mL (≈ 96.8 µM) | COC(=O)C1=C(C)NC(=O)CC1C(=O)Nc1ccc(Cl)cc1 (stereo not given)
21 | 6.61 µg/mL (≈ 17.2 µM) | Cc1cnc(-c2ccccc2C(C)C)nc1NCc1ccc(-n2ccnn2)cc1
22 | < 1 µg/mL | CCOc1ccccc1CNS(=O)(=O)c1ccc(-c2cnc(C3CC3)o2)cc1
23 | < 1 µg/mL | O=C(Nc1nc(-c2ccccc2)cs1)c1ccncc1NS(=O)(=O)c1ccc(C(F)(F)F)cc1

Row | solubility kinetic | Structure (SMILES)
24 | < 1 µg/mL | O=[S+]([O-])(Nc1nccs1)c1ccc(NCc2cc(Cl)cc(Br)c2O)cc1
25 | < 1 µg/mL | Nc1c(C(=O)Nc2ccc(F)cc2)sc2nc(-c3cccs3)cc(C(F)(F)F)c12
26 | 37.9 µg/mL (≈ 89.7 µM) | Cc1noc(-c2cn(C3CCN(C(=O)c4ccc(OC(F)(F)F)cc4)CC3)nn2)n1
27 | > 52 µg/mL | Cc1cc(-c2nnc3n2CCCCC3)c(C)n1-c1ccc([N+](=O)[O-])cc1
28 | 2.44 µg/mL (≈ 6.4 µM) | CC1CCN(C(=O)c2ccc(-c3ccc(N4CCSCC4)nc3)cc2)CC1
29 | < 1 µg/mL | CC(=O)Nc1nc(-c2ccc3c(c2)CCN3C(=O)c2ccccc2C)c(C)s1
30 | < 1 µg/mL | COc1cc(C(=O)NC2CCCc3c2[nH]c2c(Cl)cccc32)cc(OC)c1OC (stereo not given)
31 | > 52 µg/mL | NC(=O)C1CCN(c2nc(-c3ccccc3C(F)(F)F)cs2)CC1
32 | 3.53 µg/mL (≈ 7.69 µM) | CC(=O)N1CCc2c(sc3c2c(=O)n(-c2ccccc2)c(=O)n3CC(=O)c2ccccc2)C1
33 | < 1 µg/mL | Cc1ccccc1C(=O)N1CCc2cc(-c3cccc(NC(=O)Cc4ccc5c(c4)OCO5)c3)ccc21
34 | > 80 µg/mL | CC(C)N(CCCNC(=O)Nc1ccc(C(C)(C)C)cc1)C[C@H]1O[C@@H](n2ccc3c(N)ncnc32)[C@H](O)[C@@H]1O
35 | < 1 µg/mL | Cc1ccc(S(=O)(=O)N2CCCc3cc(NS(=O)(=O)c4ccccc4)ccc32)cc1
36 | > 66 µg/mL | Cc1onc(-c2ccc(F)cc2)c1COc1ccc(C(=O)N2CCS(=O)(=O)CC2)cn1
37 | 26 µg/mL (≈ 78.4 µM) | CN(C)CCOC1=Cc2ccccc2Sc2ccc(Cl)cc21
38 | 14.8 µg/mL (≈ 36.3 µM) | Cc1cccc(N2CCN(C(=O)c3ccc4c(c3)C(O)CCCCCN4C)CC2)c1 (stereo not given)
39 | 3.68 µg/mL (≈ 10.3 µM) | O=S(=O)(Nc1ccccc1N1CCCCC1)c1ccc(Cl)s1
40 | 1.13 µg/mL (≈ 3.53 µM) | Nc1ncc(S(=O)(=O)N2CCN(c3ccccc3)CC2)cn1
41 | 26.7 µg/mL (≈ 69 µM) | Cc1ccccc1CN1C2=NCCN2C(=O)C2=C1CCN(Cc1ccccc1)C2
42 | < 1 µg/mL | COc1cc(Nc2nc(-c3ccncc3)nc3ccccc23)ccc1F
43 | < 1 µg/mL | Cc1ccc(S(=O)(=O)Nc2ccccc2C(=O)Nc2nc(-c3ccccc3)c(Br)s2)cc1
44 | < 1 µg/mL | CC(=O)Nc1ccc(NC(=O)C(NS(=O)(=O)c2ccc(Br)s2)c2ccccc2)cc1 (stereo not given)
45 | > 48 µg/mL | O=C(N/N=C/c1ccc(Sc2ccccn2)o1)c1ccncc1
46 | > 51 µg/mL | Cc1cc(Cl)ccc1COc1ccnn1-c1cc(C(=O)O)ccn1

Row | solubility kinetic | Structure (SMILES)
47 | > 65 µg/mL | Cc1ccc(NS(=O)(=O)c2cccc(C(=O)O)c2)cc1S(=O)(=O)N1CCOCC1
48 | < 1 µg/mL | c1ccc(-c2cc(Nc3nc(-c4ccncc4)nc4ccccc34)n[nH]2)cc1
49 | < 1 µg/mL | Cc1cc(C)c(C(=O)Nc2cccc([S+](=O)([O-])N3CCCCC3)c2)[nH]1
50 | 21.9 µg/mL (≈ 49.9 µM) | O=C(NCCCN1CCCC1=O)c1ccc(-c2ncc3cnc(-c4ccccc4)cn23)cc1
51 | > 60 µg/mL | N[C@@H]1CN(c2c(F)cc3c(=O)c(C(=O)O)cn([C@@H]4C[C@@H]4F)c3c2Cl)CC12CC2
52 | < 1 µg/mL | COc1ccc(-c2nc3ccccc3c(=O)n2Cc2ccccc2)cc1COc1ccc(NC(C)=O)cc1
53 | > 86 µg/mL | COc1ccc(OC)c(CN2CCNc3cc(Nc4ccccc4)ncc3C2)c1
54 | 4.59 µg/mL (≈ 16.4 µM) | CCc1cccc(NC(=O)c2cc(-c3ccc[nH]3)n[nH]2)c1
55 | > 58 µg/mL | O=C(/C=C/c1cccnc1)NCCCCC1CCN(C(=O)c2ccccc2)CC1
56 | > 78 µg/mL | O=C1CCCC2=C1C(c1[nH]ncc1Cl)N=C(Nc1nc3cc([S+](=O)([O-])N4CCOCC4)ccc3o1)N2 (stereo not given)
57 | < 1 µg/mL | O=C1CCCC2=C1C(c1ccncc1Br)N=C(Nc1nc3ccccc3o1)N2 (stereo not given)
58 | < 1 µg/mL | Cc1ccc(S(=O)(=O)Nc2ncccc2C(=O)Nc2nc(-c3ccccc3)cs2)cc1
59 | < 1 µg/mL | O=C(Nc1nc(-c2ccccc2)cs1)c1ccccc1-n1cnnn1
60 | < 1 µg/mL | Cc1ccc(S(=O)(=O)Nc2ccccc2C(=O)Nc2ccc(-c3ccccc3)cc2)cc1
61 | 41.7 µg/mL (≈ 121 µM) | CC(C)Oc1cccc(-c2csc(N3CCC(C(N)=O)CC3)n2)c1
62 | > 67 µg/mL | COc1ccc(Cn2c(=O)[nH]c3cc(C(=O)NCCCN4CCCCC4)ccc3c2=O)cc1
63 | > 29 µg/mL | Cn1c(=O)c2[nH]c(=O)[nH]c2n(C)c1=O
64 | 3.67 µg/mL (≈ 10.9 µM) | NC(=O)C1CCN(c2nc(-c3ccc4ccccc4c3)cs2)CC1
65 | < 1 µg/mL | Cc1ccc(-c2cc(C(=O)Nc3ccc(S(N)(=O)=O)cc3)c3cccc(C)c3n2)cc1C
66 | 3.67 µg/mL (≈ 9.64 µM) | CNC(=O)C1CCN(c2nc(-c3ccc(Br)cc3)cs2)CC1
67 | 1.39 µg/mL (≈ 3.39 µM) | O=C(Nc1ccc(S(=O)(=O)Nc2nccs2)cc1)c1cccc2ccccc12
68 | < 1 µg/mL | Cc1sc(NC(=O)Cc2ccc3c(c2)OCO3)nc1-c1ccc2c(c1)CCN2C(=O)c1ccccc1F

Row | Structure (SMILES) | solubility kinetic
69 | CCOc1ccc(CCNC(=O)c2cc3ccncc3n2Cc2cccc(C)n2)cc1OCC | > 68 µg/mL
70 | CSc1cccc(NC(=O)CC[C@H]2O[C@@H]3O[C@]4(C)CC[C@H]5[C@H](C)CC[C@@H]([C@@H]2C)[C@@]35OO4)c1 | 1.2 µg/mL (≈ 2.6 µM)

— PubChem BioAssay AID1645848
